# Test results from US11426347B2, “Food for improving intraintestinal environment” (AJINOMOTO CO., INC., priority 2017, dated 2022).
# How the values were obtained:
# Assay type in all cases: cell-based
# [1] = test system: bifidobacteria; assay: Experimental Example 1-1: addition of amino acid and fructo-oligosaccharide to human feces suspension, anaerobic culture, quantitative PCR of bifidobacteria; settings: amino acid added together with 0.5% FOS, compared with FOS alone, human feces suspension in PBS, 37° C., 4 days
# Procedure: The PBS solutions for the Examples and Comparative Examples shown in Table 1-1 were prepared and used as media for a feces culture. PBS alone was used as a control. Fructo-oligosaccharide (FOS) manufactured by Wako Pure Chemical Industries, Ltd. (#064-02385) was used.
# (§1) Thereafter, 10 ml of each solution was dispensed into glass vials and the glass vials were sterilized by autoclave, made anaerobic, and sealed with a butyl rubber stopper. The feces suspension was prepared by collecting about 10 g of feces from 3 healthy individuals (one man and two women) in their 20 s to 40 s and suspending same in 80 ml of anaerobic PBS. The feces suspension was added to each vial by 0.5 ml, placed in an incubator at 37° C., and anaerobically cultured for 4 days with tumble blending once per day. After completion of the culture, an intestinal bacterial pellet was obtained from the entire amount of the culture medium by centrifugation (8,000×g, 5 min). DNA was extracted from this pellet using ISOFECAL for BeadsBeat (manufactured by NIPPON GENE CO., LTD.), and quantitative PCR was performed using GeneAce SYBR qPCR Mix α (manufactured by NIPPON GENE CO., LTD.). Quantitative PCR was performed under the conditions of 45 cycles of 95° C. for 30 sec and 60° C. for 60 sec after 95° C. for 10 min. Primers for quantitative PCR used for detection bifidobacteria are as follows.
# (§2) Using the results obtained by quantitative PCR, the relative amount when the control is 1 was calculated, and the results were normalized with z-score.
# [2] = test system: bifidobacteria; assay: Experimental Example 2: addition test of amino acid and galacto-oligosaccharide to human feces suspension; settings: amino acid added together with 0.5% GOS, compared with GOS alone; human feces suspension in PBS, 4 days; quantitative PCR
# Procedure: as §1
# The PBS solutions for the Examples and Comparative Examples shown in Table 2 were prepared and used as media for feces culture. […]
# as §2
# [3] = test system: bifidobacteria; assay: Experimental Example 1-2: addition test of amino acid and fructo-oligosaccharide to human feces suspension; settings: amino acid added together with 0.5% FOS, compared with FOS alone; human feces suspension in PBS, 4 days; quantitative PCR
# Procedure: as §1
# The PBS solutions for the Examples and Comparative Examples shown in Table 1-2 were prepared and used as media for a feces culture. […]
# as §2
Compound,proliferation of bifidobacteria [1],proliferation of bifidobacteria [2],proliferation of bifidobacteria [3]
"NCCCC[C@H](N)C(=O)O [Lys, L-lysine]",greater proliferation of bifidobacteria than that with FOS alone,greater proliferation of bifidobacteria than that with GOS alone,
"N[C@@H](Cc1c[nH]cn1)C(=O)O [His, L-histidine]",,,greater proliferation of bifidobacteria than that with FOS alone
"CC[C@H](C)[C@H](N)C(=O)O [Ile, L-isoleucine]",greater proliferation of bifidobacteria than that with FOS alone,,
"O=C(O)[C@@H]1CCCN1 [Pro, L-proline]",,,greater proliferation of bifidobacteria than that with FOS alone
"N[C@@H](CCC(=O)O)C(=O)O [Glu, L-glutamic acid]",greater proliferation of bifidobacteria than that with FOS alone,greater proliferation of bifidobacteria than that with GOS alone,
"CC(C)[C@H](N)C(=O)O [Val, L-valine]",greater proliferation of bifidobacteria than that with FOS alone,,
"NC(=O)CC[C@H](N)C(=O)O [Gln, L-glutamine]",greater proliferation of bifidobacteria than that with FOS alone,,
"C[C@H](N)C(=O)O [Ala, L-alanine]",greater proliferation of bifidobacteria than that with FOS alone,,
